Measurements taken from PMC6983213, “Combining Chalcones with Donepezil to Inhibit Both Cholinesterases and Aβ Fibril Assembly” (Molecules, 2019).
“And” between values parts separate entries of the source, which are not always exact repeats. Equal entries are not always repeated. Where two headings read alike, the source gives them in different places.

Key:
[1] = molecular target: EeAChE (AChE from Electrophorus electricus) (Electrophorus electricus, UniProt O42275); assay: biochemical; conditions: for IC50: Ellman's method, pH 8.0, 25 °C, triplicate, ± SDEV, read-out: Inhibition (IC50) of EeAChE; for selectivity index (SI): based on IC50 values against EeAChE and EfBChE
Sequence of EeAChE (AChE from Electrophorus electricus) (O42275 24-633): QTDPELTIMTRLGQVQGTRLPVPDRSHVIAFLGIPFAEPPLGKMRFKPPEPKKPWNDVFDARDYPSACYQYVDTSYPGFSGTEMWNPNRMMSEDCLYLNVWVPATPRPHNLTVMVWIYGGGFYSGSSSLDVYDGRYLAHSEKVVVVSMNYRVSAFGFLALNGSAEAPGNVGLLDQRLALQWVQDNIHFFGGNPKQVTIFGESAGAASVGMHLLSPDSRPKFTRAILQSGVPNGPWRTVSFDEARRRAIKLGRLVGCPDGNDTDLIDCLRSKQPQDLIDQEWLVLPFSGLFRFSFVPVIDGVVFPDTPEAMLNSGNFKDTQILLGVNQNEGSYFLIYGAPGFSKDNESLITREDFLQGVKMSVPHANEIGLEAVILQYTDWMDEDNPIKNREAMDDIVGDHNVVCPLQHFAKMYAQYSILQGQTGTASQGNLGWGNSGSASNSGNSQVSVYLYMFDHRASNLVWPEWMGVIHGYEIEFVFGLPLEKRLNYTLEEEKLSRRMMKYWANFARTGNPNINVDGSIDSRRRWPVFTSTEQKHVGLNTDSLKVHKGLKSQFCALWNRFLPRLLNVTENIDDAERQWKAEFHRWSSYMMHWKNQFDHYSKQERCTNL
Description: (§1) The ChE inhibition assays were performed as previously described. The 1,3- and 1,4-chalcone-donepezil hybrids (0.1 nM to 100 μM) were dissolved in sodium phosphate buffer ((100 μL), 0.1 M, pH 8.0). […] All assays were performed in triplicate. The data was plotted as a sigmoidal curve and IC50 values were calculated using SigmaPlot 14.0 (Systat Software, San Jose, CA, USA).

[2] = molecular target: T1, F40 = Aβ(1–40) fibrils (Homo sapiens, UniProt P05067); assay: 3H-PIB binding competition/titration, Aβ(1–40) fibrils; conditions: compounds at 10 μM (titration 10 to 0.03 μM); 1.2 nM 3H-PIB
T1 construct: lyophilized NH4OH-treated Aβ(1–40) (cat # A-1157-02); purchased rPeptide (Watkinsville, GA, USA) A-1157-02
T1 sequence (P05067 672-711): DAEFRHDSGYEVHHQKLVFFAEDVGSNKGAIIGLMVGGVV
Description: (§2) Prior to being transferred to screw-top polypropylene vials and being stored at −75 °C, these 1 mg/mL fibril suspensions were further diluted with an equal volume of the buffer solution.
(§3) The plates were sealed and incubated for 3 h at 22 °C, without shaking, and transferred to a 96-well Millipore Multiscreen HTS Hi Flow FB (GF/B) filter plate, and filtered with a multi-well plate vacuum manifold (Millipore Corporation, Bedford, MA, USA). […] Specific binding of ^3H-PIB was determined by subtracting the non-specific binding determined in the presence of 1 μM BTA-1.
(§4) The titration of compounds with ^3H-PIB bound to Aβ(1–40) and Aβ(1–42) fibrils and AD brain extract (ADPBC) were performed to further determine the competition of our compounds for the ^3H-PIB binding site of the AD brain. The experiments were performed as described in the ^3H-PIB binding assays of Section 3.4.3 with the use of a concentration range of 10 to 0.03 μM for the compounds tested.

[3] = molecular target: EfBChE (BChE from Equus ferus) (Equus caballus, UniProt P81908); assay: biochemical; assay type: biochemical; conditions: Ellman's method, pH 8.0, 25 °C, triplicate, ± SDEV; read-out: Inhibition (IC50) of EfBChE
Sequence of EfBChE (BChE from Equus ferus) (P81908 whole entry): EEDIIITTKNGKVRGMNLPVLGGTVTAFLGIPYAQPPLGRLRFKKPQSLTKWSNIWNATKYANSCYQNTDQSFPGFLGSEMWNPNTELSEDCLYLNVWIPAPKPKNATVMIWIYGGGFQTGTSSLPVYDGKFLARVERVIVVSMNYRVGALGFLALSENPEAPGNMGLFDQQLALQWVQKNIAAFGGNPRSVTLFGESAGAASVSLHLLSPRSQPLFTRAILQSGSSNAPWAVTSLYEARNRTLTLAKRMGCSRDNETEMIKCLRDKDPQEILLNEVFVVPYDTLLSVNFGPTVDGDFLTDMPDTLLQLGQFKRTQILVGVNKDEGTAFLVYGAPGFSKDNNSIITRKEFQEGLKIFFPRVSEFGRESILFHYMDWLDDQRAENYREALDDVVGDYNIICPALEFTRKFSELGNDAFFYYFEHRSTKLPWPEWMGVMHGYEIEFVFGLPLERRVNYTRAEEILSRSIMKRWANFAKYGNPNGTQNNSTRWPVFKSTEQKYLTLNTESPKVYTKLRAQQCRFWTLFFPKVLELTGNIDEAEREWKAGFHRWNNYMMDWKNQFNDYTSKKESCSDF
Description: as §1

[4] = molecular target: T2, N-biotinyl-Aβ(1–42) (bioAβ42) oligomer assembly (Homo sapiens, UniProt P05067); assay: biochemical; conditions: for bioAβ42 oligomer assembly inhibition (in words): 1.56 to 50 μM, alone or in 1:1 / 1:1:1 mixtures; for EC50: concentration range 50 to 1.56 μM, duplicate, n = 3 independent experiments, ± SDEV
T2 construct: N-biotinyl Aβ(1–42) (bioAβ42) was purchased from Anaspec; purchased Anaspec (Fremont, CA, USA) AS-23523-05
T2 sequence (P05067 672-713): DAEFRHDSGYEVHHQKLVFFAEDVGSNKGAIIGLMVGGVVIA
Description: We first examined the effect of the synthesized 1,3- and 1,4-chalcone-donepezil hybrids 15a–15f and 16a–16f on the assembly of N-biotinyl-Aβ(1–42) (bioAβ42) monomers into oligomers. We quantified the assembly of bioAβ42 into soluble oligomers by using an ELISA assay in which the soluble oligomers were captured on NeutrAvidin^TM-coated ELISA plates and detected with streptavidin-horseradish peroxidase and colorimetric readout (Figure 3).
The plates were then stored in their blocked form at 4 °C prior to use for the oligomer assembly and dissociation assays.
The assembly of bioAβ42 into soluble oligomers was quantified with an ELISA assay in which the soluble oligomers were captured with the NeutrAvidin^TM coating the ELISA plates. The bound oligomers were detected with streptavidin-horseradish peroxidase (SA-HRP). […] Below, please find the details of the three steps (Steps 1–3) used for the oligomer assembly assay.
Step 1: Preparation of monomeric bioAβ42. For a low background, it was essential to rigorously pretreat the bioAβ42 peptide to convert (disaggregate) the multimeric species that form upon storage in the solid state, or even frozen in 1,1,1,3,3,3-hexafluoroisopropanol (HFIP) to monomers. The required amount of stock bioAβ42 peptide (0.5 mg dissolved at 1 mg/mL in HFIP) was pipetted into a polypropylene microfuge tube, dried to a thin film under a gentle air or N2 stream, and then disaggregated for 10 min at rt in neat trifluoroacetic acid (TFA). After removal of the TFA by drying with an air or N2 stream, DMSO was added to produce a 2.3 μg/mL (50×) stock solution.
Step 2: Assembly of bioAβ42 oligomers. 2 μL of disaggregated monomeric 50× bioAβ42 peptide in DMSO (prepared in Step 1) was pipetted into the bottom of each well of a polypropylene 96-well plate. […] The 96-well plate was sealed and incubated at rt for 30 min without shaking. The bioAβ42 oligomer assembly was stopped by adding 50 μL of 0.3% Tween 20 v/v in distilled H2O.
Step 3: Measurement of bioAβ42 oligomers. […] The 96-well plate was then sealed and incubated for 2 h while shaking at 150 rpm at rt. […] The plate was sealed and incubated for 1 h while shaking at 150 rpm at rt. The plate was washed as previously described, and 100 μL/well of HRP substrate (i.e., 1 mM:0.07 mM/tetramethylbenzidine:H2O2) in 0.2 M citrate buffer, pH 4.0 was added. The plate was incubated at rt for 5 to 10 min and the reaction was stopped by the addition of 100 μL/well of 1% v/v H2SO4. The absorbance of each well was read at 450 nm with a BioTek HT Synergy plate reader.
The effects of various chalcones, donepezil, donepezil analogue, and 1,3-chalcone-donepezil hybrids were tested for their ability to inhibit the bioAβ42 oligomer assembly and dissociation either alone or in combination with each other. The experiments were performed as described in the biotinyl-Aβ(1–42) (bioAβ42) oligomer assembly and dissociation assays section.

[5] = molecular target: T3, F42 = Aβ(1–42) fibrils (Homo sapiens, UniProt P05067); assay: 3H-PIB binding competition/titration, Aβ(1–42) fibrils; conditions: compounds at 10 μM (titration 10 to 0.03 μM); 1.2 nM 3H-PIB
T3 construct: Aβ(1–42) (cat # A-1167-02) purchased from rPeptide; purchased rPeptide (Watkinsville, GA, USA) A-1167-02
T3 sequence (P05067 672-713): as above
Description: as §2, §3, §4

[6] = system: ADPBC (Alzheimer's disease PIB binding complex); assay: 3H-PIB binding competition/titration, ADPBC; set-up: species or system Human; conditions: compounds at 10 μM (titration 10 to 0.03 μM); 1.2 nM 3H-PIB
Description: Human AD brain frontal cortical tissue (from the Sanders-Brown Center on Aging Alzheimer’s Disease Center Brain Bank at the University of Kentucky) was processed as follows.
as §3, §4

[7] = read-out: EC50 against bioAβ42 oligomer assembly

Structure (SMILES) | IC50 [1] | selectivity index (SI) [1] | displacement of 3H-PIB from F40 (in words) [2] | IC50 [3] | bioAβ42 oligomer assembly inhibition (in words) [4] | EC50 ([4]; EC50 against bioAβ42 oligomer assembly) | displacement of 3H-PIB from F42 (in words) [5] | EC50 [4, 7] | displacement of 3H-PIB from ADPBC (in words) [6]
COc1cc2c(cc1OCCOc1ccc(C(=O)/C=C/c3ccc(N(C)C)cc3)cc1)C(=O)C(CC1CCN(Cc3ccccc3)CC1)C2 (centres unmarked) [16a, (E)-2-((1-Benzylpiperidin-4-Yl)Methyl)-6-(2-(4-(3-(4-(Dimethylamino)Phenyl)Acryloyl)Phenoxy)Ethoxy)-5-Methoxy-2,3-Dihydro-1H-Inden-1-One] | 70 ± 10 nM | ≈1.4 | better affinity for F40 and F42 than 16b, 16c, 16d, 16e, and 16f | ~100 nM | better inhibition of bioAβ42 oligomer assembly | 9370 ± 2100 nM | better affinity for F40 and F42 than 16b, 16c, 16d, 16e, and 16f |  | 
COc1cc2c(cc1OCCCCCCCCCCOc1cccc(C(=O)/C=C/c3ccc(N(C)C)cc3)c1)C(=O)C(CC1CCN(Cc3ccccc3)CC1)C2 (centres unmarked) [15e, (E)-2-((1-Benzylpiperidin-4-Yl)Methyl)-6-((10-(3-(3-(4-(Dimethylamino)Phenyl)Acryloyl)Phenoxy)Decyl)Oxy)-5-Methoxy-2,3-Dihydro-1H-Inden-1-One] | 1820 ± 450 nM | ≈5.5 |  | ~10000 nM | did not prevent bioAβ42 oligomerization |  |  | 31700 nM and > 12000 nM | 
COc1cc2c(cc1OCCCCCCCCOc1cccc(C(=O)/C=C/c3ccc(N(C)C)cc3)c1)C(=O)C(CC1CCN(Cc3ccccc3)CC1)C2 (centres unmarked) [15d, (E)-2-((1-Benzylpiperidin-4-Yl)Methyl)-6-((8-(3-(3-(4-(Dimethylamino)Phenyl)Acryloyl)Phenoxy)Octyl)Oxy)-5-Methoxy-2,3-Dihydro-1H-Inden-1-One] | 1220 ± 130 nM | ≈1.6 |  | ~2000 nM | better inhibition of bioAβ42 oligomer assembly |  |  | 9670 ± 1150 nM | 
COc1cc2c(cc1OCCCCCCCCCCOc1ccc(C(=O)/C=C/c3ccc(N(C)C)cc3)cc1)C(=O)C(CC1CCN(Cc3ccccc3)CC1)C2 (centres unmarked) [16e, (E)-2-((1-Benzylpiperidin-4-Yl)Methyl)-6-((10-(4-(3-(4-(Dimethylamino)Phenyl)Acryloyl)Phenoxy)Decyl)Oxy)-5-Methoxy-2,3-Dihydro-1H-Inden-1-One] | 1380 ± 180 nM |  |  | ~5000 nM | did not prevent bioAβ42 oligomerization |  |  | 9730 ± 550 nM | ADPBC affinity comparable to that of 16a
COc1cc2c(cc1OCCCCCCCCCCCCOc1cccc(C(=O)/C=C/c3ccc(N(C)C)cc3)c1)C(=O)C(CC1CCN(Cc3ccccc3)CC1)C2 (centres unmarked) [15f, (E)-2-((1-Benzylpiperidin-4-Yl)Methyl)-6-((12-(3-(3-(4-(Dimethylamino)Phenyl)Acryloyl)Phenoxy)Dodecyl)Oxy)-5-Methoxy-2,3-Dihydro-1H-Inden-1-One] | 1670 ± 800 nM | >60 |  | > 100000 nM | did not prevent bioAβ42 oligomerization |  |  | 45300 nM and > 12000 nM | 
COc1cc2c(cc1OCCCCCCOc1ccc(C(=O)/C=C/c3ccc(N(C)C)cc3)cc1)C(=O)C(CC1CCN(Cc3ccccc3)CC1)C2 (centres unmarked) [16c, (E)-2-((1-Benzylpiperidin-4-Yl)Methyl)-6-((6-(4-(3-(4-(Dimethylamino)Phenyl)Acryloyl)Phenoxy)Hexyl)Oxy)-5-Methoxy-2,3-Dihydro-1H-Inden-1-One] | ~500 nM | ≈1.2 |  | ~600 nM | better inhibition of bioAβ42 oligomer assembly |  |  | 2600 ± 460 nM | 
COc1cc2c(cc1OCCCCCCCCCCCCOc1ccc(C(=O)/C=C/c3ccc(N(C)C)cc3)cc1)C(=O)C(CC1CCN(Cc3ccccc3)CC1)C2 (centres unmarked) [16f, (E)-2-((1-Benzylpiperidin-4-Yl)Methyl)-6-((12-(4-(3-(4-(Dimethylamino)Phenyl)Acryloyl)Phenoxy)Dodecyl)Oxy)-5-Methoxy-2,3-Dihydro-1H-Inden-1-One] | > 100000 nM |  |  | > 100000 nM | did not prevent bioAβ42 oligomerization |  |  | 24100 nM and > 12000 nM | ADPBC affinity comparable to that of 16a
COc1cc2c(cc1OCCCCOc1ccc(C(=O)/C=C/c3ccc(N(C)C)cc3)cc1)C(=O)C(CC1CCN(Cc3ccccc3)CC1)C2 (centres unmarked) [16b, (E)-2-((1-Benzylpiperidin-4-Yl)Methyl)-6-(4-(4-(3-(4-(Dimethylamino)Phenyl)Acryloyl)Phenoxy)Butoxy)-5-Methoxy-2,3-Dihydro-1H-Inden-1-One] | 140 ± 20 nM | ≈3.6 |  | ~500 nM | better inhibition of bioAβ42 oligomer assembly |  |  | 2000 ± 200 nM | 
CN(C)c1ccc(/C=C/C(=O)c2ccc(O)cc2)cc1 [compound 6, (E)-3-(4-(Dimethylamino)Phenyl)-1-(4-Hydroxyphenyl)Prop-2-En-1-One] |  |  |  |  |  |  |  | > 50000 nM | 
COc1cc2c(cc1OCCCCCCOc1cccc(C(=O)/C=C/c3ccc(N(C)C)cc3)c1)C(=O)C(CC1CCN(Cc3ccccc3)CC1)C2 (centres unmarked) [15c, (E)-2-((1-Benzylpiperidin-4-Yl)Methyl)-6-((6-(3-(3-(4-(Dimethylamino)Phenyl)Acryloyl)Phenoxy)Hexyl)Oxy)-5-Methoxy-2,3-Dihydro-1H-Inden-1-One] | 1220 ± 180 nM | ≈3.3 |  | ~4000 nM | better inhibition of bioAβ42 oligomer assembly |  |  | 8670 ± 150 nM | 
COc1cc2c(cc1OCCCCCCCCOc1ccc(C(=O)/C=C/c3ccc(N(C)C)cc3)cc1)C(=O)C(CC1CCN(Cc3ccccc3)CC1)C2 (centres unmarked) [16d, (E)-2-((1-Benzylpiperidin-4-Yl)Methyl)-6-((8-(4-(3-(4-(Dimethylamino)Phenyl)Acryloyl)Phenoxy)Octyl)Oxy)-5-Methoxy-2,3-Dihydro-1H-Inden-1-One] | 520 ± 60 nM | ≈1.9 |  | ~1000 nM | better inhibition of bioAβ42 oligomer assembly |  |  | 4130 ± 150 nM | 
